Laboratory results published in ChEMBL document CHEMBL1135808, “A new type of mixed anhydride and its applications to the synthesis of 7-substituted 8-chloro-5,5-dioxoimidazo[1,2-b][1,4,2]benzodithiazines with in vitro antitumor activity” (2002).

These molecules were tested on OVCAR-3 (assay: In vitro total growth inhibition against ovarian cancer OVCAR-3 cell lines was reported.). Details: Homo sapiens, read-out: Log TGI (converted).
Type: functional

SMILES | TGI [µM]
O=C(Nc1cccc2nsnc12)c1cc2c(cc1Cl)Sc1nccn1S2(=O)=O | 3.47

The molecules below were run on K562 (assay: In vitro total growth inhibition against leukemia K-562 cell lines was reported.). Details: Homo sapiens, read-out: Log TGI (converted).
Type: functional

SMILES | TGI [µM]
O=C(Nc1cccc2nsnc12)c1cc2c(cc1Cl)Sc1nccn1S2(=O)=O | 20

What follows are molecules tested on Tumor Cell line (assay: In vitro total growth inhibition for 50 cell lines was reported as log of molar concentration). Details: not given.
Type: functional, Homo sapiens

SMILES | Log GTI
O=C(Nc1cccc2nsnc12)c1cc2c(cc1Cl)Sc1nccn1S2(=O)=O | -4.31

What follows are molecules tested on RPMI-8226 (assay: In vitro growth inhibition against leukemia […] cell line was reported.). Details: Homo sapiens.
Type: functional

SMILES | GI50 [µM]
O=C(Nc1cccc2nsnc12)c1cc2c(cc1Cl)Sc1nccn1S2(=O)=O | 2.09

Each molecule was assayed on HOP-92 (assay: In vitro growth inhibition against non-small-cell lung cancer HOP-92 cell line was reported.). Details: Homo sapiens.
Type: functional

SMILES | GI50 [µM]
O=C(Nc1cccc2nsnc12)c1cc2c(cc1Cl)Sc1nccn1S2(=O)=O | 5.89

These molecules were tested on OVCAR-4 (assay: Log of molar concentration leading to 50% cell death against ovarian cancer OVCAR-4 cell line was reported). Details: Homo sapiens, read-out: Log LC50 (the source's name) (converted).
Type: functional

SMILES | CC50 [µM]
O=C(Nc1cccc2nsnc12)c1cc2c(cc1Cl)Sc1nccn1S2(=O)=O | 87.1

These molecules were tested on HOP-62 (assay: In vitro growth inhibition against non-small-cell lung cancer HOP-62 cell line was reported.). Details: Homo sapiens.
Type: functional

SMILES | GI50 [µM]
O=C(Nc1cccc2nsnc12)c1cc2c(cc1Cl)Sc1nccn1S2(=O)=O | 1.66

Each molecule was assayed on LOX IMVI (assay: In vitro growth inhibition against melanoma LOX IMVI cell line was reported.). Details: Homo sapiens.
Type: functional

SMILES | GI50 [µM]
O=C(Nc1cccc2nsnc12)c1cc2c(cc1Cl)Sc1nccn1S2(=O)=O | 5.25

What follows are molecules tested on NCI/ADR-RES (assay: In vitro growth inhibition against breast cancer NCI/ADR-RES cell line was reported.). Details: Homo sapiens.
Type: functional

SMILES | GI50 [µM]
O=C(Nc1cccc2nsnc12)c1cc2c(cc1Cl)Sc1nccn1S2(=O)=O | 17.8

The molecules below were run on OVCAR-5 (assay: In vitro growth inhibition against ovarian cancer OVCAR-5 cell line was reported.). Details: Homo sapiens.
Type: functional

SMILES | GI50 [µM]
O=C(Nc1cccc2nsnc12)c1cc2c(cc1Cl)Sc1nccn1S2(=O)=O | 29.5

These molecules were tested on 786-0 (assay: In vitro total growth inhibition against renal cancer […] cell lines was reported.). Details: Homo sapiens, read-out: Log TGI (converted).
Type: functional

SMILES | TGI [µM]
O=C(Nc1cccc2nsnc12)c1cc2c(cc1Cl)Sc1nccn1S2(=O)=O | 30.2

What follows are molecules tested on NCI-H46 (assay: In vitro total growth inhibition against non-small-cell lung cancer […] cell lines was reported.). Details: Homo sapiens, read-out: Log TGI (converted).
Type: functional

SMILES | TGI [µM]
O=C(Nc1cccc2nsnc12)c1cc2c(cc1Cl)Sc1nccn1S2(=O)=O | 4.27

These molecules were tested on NCI-H522 (assay: Log of molar concentration leading to 50% cell death against non-small-cell lung cancer NCI-522 cell line was reported). Details: Homo sapiens, read-out: Log LC50 (the source's name) (converted).
Type: functional

SMILES | CC50 [µM]
O=C(Nc1cccc2nsnc12)c1cc2c(cc1Cl)Sc1nccn1S2(=O)=O | 89.1

These molecules were tested on DU-145 (assay: Log of molar concentration leading to 50% cell death against prostate cancer […] cell line was reported). Details: Homo sapiens, read-out: Log LC50 (the source's name) (converted).
Type: functional

SMILES | CC50 [µM]
O=C(Nc1cccc2nsnc12)c1cc2c(cc1Cl)Sc1nccn1S2(=O)=O | 6.03

These molecules were tested on OVCAR-8 (assay: In vitro total growth inhibition against ovarian cancer OVCAR-8 cell lines was reported.). Details: Homo sapiens, read-out: Log TGI (converted).
Type: functional

SMILES | TGI [µM]
O=C(Nc1cccc2nsnc12)c1cc2c(cc1Cl)Sc1nccn1S2(=O)=O | 7.08

These molecules were tested on SR (assay: In vitro growth inhibition against leukemia SR cell line was reported.). Details: Homo sapiens.
Type: functional

SMILES | GI50 [µM]
O=C(Nc1cccc2nsnc12)c1cc2c(cc1Cl)Sc1nccn1S2(=O)=O | 2

The molecules below were run on UACC-62 (assay: In vitro growth inhibition against melanoma UACC-62 cell line was reported.). Details: Homo sapiens.
Type: functional

SMILES | GI50 [µM]
O=C(Nc1cccc2nsnc12)c1cc2c(cc1Cl)Sc1nccn1S2(=O)=O | 5.37

The molecules below were run on NCI-H226 (assay: In vitro growth inhibition against non-small-cell lung cancer NCI-H226 cell line was reported.). Details: Homo sapiens.
Type: functional

SMILES | GI50 [µM]
O=C(Nc1cccc2nsnc12)c1cc2c(cc1Cl)Sc1nccn1S2(=O)=O | 19.1

What follows are molecules tested on A498 (assay: In vitro total growth inhibition against renal cancer A-498 cell lines was reported.). Details: Homo sapiens, read-out: Log TGI (converted).
Type: functional

SMILES | TGI [µM]
O=C(Nc1cccc2nsnc12)c1cc2c(cc1Cl)Sc1nccn1S2(=O)=O | 26.3

The molecules below were run on OVCAR-8 (assay: Log of molar concentration leading to 50% cell death against ovarian cancer OVCAR-8 cell line was reported). Details: Homo sapiens, read-out: Log LC50 (the source's name) (converted).
Type: functional

SMILES | CC50 [µM]
O=C(Nc1cccc2nsnc12)c1cc2c(cc1Cl)Sc1nccn1S2(=O)=O | 38

These molecules were tested on DU-145 (assay: In vitro total growth inhibition against prostate cancer […] cell lines was reported.). Details: Homo sapiens, read-out: Log TGI (converted).
Type: functional

SMILES | TGI [µM]
O=C(Nc1cccc2nsnc12)c1cc2c(cc1Cl)Sc1nccn1S2(=O)=O | 3.24

The molecules below were run on UACC-257 (assay: In vitro total growth inhibition against melanoma UACC-257 cell line was reported.). Details: Homo sapiens.
Type: functional

SMILES | GI50 [µM]
O=C(Nc1cccc2nsnc12)c1cc2c(cc1Cl)Sc1nccn1S2(=O)=O | 1.82

These molecules were tested on U-251 (assay: In vitro growth inhibition against CNS cancer U251 cell line was reported.). Details: Homo sapiens.
Type: functional

SMILES | GI50 [µM]
O=C(Nc1cccc2nsnc12)c1cc2c(cc1Cl)Sc1nccn1S2(=O)=O | 4.57

These molecules were tested on SK-MEL-2 (assay: In vitro growth inhibition against melanoma SK-MEL-2 cell line was reported.). Details: Homo sapiens.
Type: functional

SMILES | GI50 [µM]
O=C(Nc1cccc2nsnc12)c1cc2c(cc1Cl)Sc1nccn1S2(=O)=O | 10

What follows are molecules tested on MOLT-4 (assay: In vitro growth inhibition against leukemia MOLT-4 cell line was reported.). Details: Homo sapiens.
Type: functional

SMILES | GI50 [µM]
O=C(Nc1cccc2nsnc12)c1cc2c(cc1Cl)Sc1nccn1S2(=O)=O | 2.75

The molecules below were run on HT-29 (assay: In vitro total growth inhibition against colon cancer HT-29 cell lines was reported.). Details: Homo sapiens, read-out: Log TGI (converted).
Type: functional

SMILES | TGI [µM]
O=C(Nc1cccc2nsnc12)c1cc2c(cc1Cl)Sc1nccn1S2(=O)=O | 5.25

What follows are molecules tested on HOP-62 (assay: In vitro total growth inhibition against non-small-cell lung cancer HOP-62 cell lines was reported.). Details: Homo sapiens, read-out: Log TGI (converted).
Type: functional

SMILES | TGI [µM]
O=C(Nc1cccc2nsnc12)c1cc2c(cc1Cl)Sc1nccn1S2(=O)=O | 3.8

These molecules were tested on HCC 2998 (assay: In vitro total growth inhibition against colon cancer HCC2998 cell lines was reported.). Details: Homo sapiens, read-out: Log TGI (converted).
Type: functional

SMILES | TGI [µM]
O=C(Nc1cccc2nsnc12)c1cc2c(cc1Cl)Sc1nccn1S2(=O)=O | 11.7

These molecules were tested on MCF7 (assay: In vitro growth inhibition against breast cancer MCF 7 cell line was reported.). Details: Homo sapiens.
Type: functional

SMILES | GI50 [µM]
O=C(Nc1cccc2nsnc12)c1cc2c(cc1Cl)Sc1nccn1S2(=O)=O | 1.74

These molecules were tested on M14 (assay: Log of molar concentration leading to 50% cell death against melanoma M14 cell line was reported). Details: Homo sapiens, read-out: Log LC50 (the source's name) (converted).
Type: functional

SMILES | CC50 [µM]
O=C(Nc1cccc2nsnc12)c1cc2c(cc1Cl)Sc1nccn1S2(=O)=O | 69.2
